Assay results: patent US8124623B2, “5-hydroxymethyl-oxazolidin-2-one-derivatives and their uses as antibacterials” (Actelion Pharmaceuticals Ltd., priority 2006, dated 2012)
In brackets after ≈: the same amount, converted by molar mass.

Tests used:
[1] = tested on: Bacteroides thetaiotaomicron A-990 ATCC 29741; test: microbe, parasite or virus in culture; format: cell-based; conditions: ATCC29741
[2] = tested on: Lactobacillus acidophilus A-1255 DSM 20079; test: MIC, particular anaerobic bacterial strains; format: cell-based
[3] = tested on: toxigenic C. difficile strain 10465; test: C. difficile hamster model; format: in vivo, Golden Syrian hamsters
Procedure: Golden Syrian hamsters were given a single injection of clindamycin phosphate (10 mg/kg s.c.), and a day later animals were infected by gavage with 10^5 CFU of toxigenic C. difficile strain 10465. A fulminant colitis results in the majority (˜95%) of animals and develops 1 to 2 days after the administration of C. difficile. Untreated, the colitis progresses rapidly and turns into severe colitis, hemorrhagic necrosis of the cecum and death. The compound of Example 1 was administered orally as a suspension at three dosage levels (10 mg/kg, 30 mg/kg and 100 mg/kg; n=10 per group). Vancomycin (50 mg/kg) was used as a control. Animals were treated once daily for 5 days and afterwards maintain under observation for an additional 21 days.
The animals were observed three times daily for morbidity and presence or absence of diarrhoea. The final endpoint of the study was survival. Animals judged to be in a moribund state [extended period of weight loss progressing to an emaciated state, anorexia for 24-48 h, prolonged lethargy (more than 3 days), signs of paralysis, skin erosions or trauma, hunched posture, distended abdomen] were euthanized by a single injection of sodium pentobarbital.

[4] = tested on: Finegoldia magna A-1254 DSM 20470; test: MIC, particular anaerobic bacterial strains; format: cell-based
[5] = tested on: Eubacterium limosum A-1259 DSM 20698; test: MIC, particular anaerobic bacterial strains; format: cell-based
[6] = tested on: C. difficile strain NC13366; format: cell-based; conditions: treated cultures compared to the untreated control, day 5
[7] = tested on: Bacteroides fragilis A-992 ATCC 25285; test: MIC, particular anaerobic bacterial strains; format: cell-based; conditions: ATCC25285
[8] = tested on: C. difficile strain NC13366; format: cell-based; conditions: 1 and 8 μg/mL, day 5 vs day 1, high density stationary phase cultures
[9] = tested on: Lactococcus lactis A-1256 DSM 20069; test: MIC, particular anaerobic bacterial strains; format: cell-based
[10] = 10 mg/kg orally once daily for 5 days
[11] = 30 mg/kg orally once daily for 5 days

SMILES: O=C(O)c1cn(C2CC2)c2cc(N3CCC(O)(COc4ccc(N5C[C@H](CO)OC5=O)cc4F)CC3)c(F)cc2c1=O [Example 1, 1-cyclopropyl-6-fluoro-7-{4-[2-fluoro-4-((R)-5-hydroxymethyl-2-oxo-oxazolidin-3-yl)-phenoxymethyl]-4-hydroxy-piperidin-1-yl}-4-oxo-1,4-dihydro-quinoline-3-carboxylic acid]
- MIC [1]: 8 µg/mL (≈ 13.7 µM)
- less activity than compound of Example 5 of WO 2005/058888 (R1) [2]: 8 times
- animals surviving the 5 day treatment period [3, 10]: all animals
- animals surviving the relapse phase of 21 days after treatment [3, 10]: 40%
- animals surviving the 5 day treatment period [3, 11]: all animals
- animals surviving the relapse phase of 21 days after treatment without relapse [3, 11]: 80%
- animals surviving the 5 day treatment period ([3]; 100 mg/kg orally once daily for 5 days): all animals
- less activity than compound of Example 5 of WO 2005/058888 (R1) [4]: 4 times
- less activity than compound of Example 5 of WO 2005/058888 (R1) [5]: 4 times
- reduction of toxin B activity of culture supernatants [6]: > 90%
- MIC [7]: 8 µg/mL (≈ 13.7 µM)
- de novo toxin A production in supernatants [8]: inhibited de novo toxin A production
- less activity than compound of Example 5 of WO 2005/058888 (R1) [9]: 8 times
